Here are results for nine substances from patent publication US20050215478A1, “Amino acid sequences capable of facilitating penetration across a biological barrier” (priority 2002, published 2005).

No end group written: not given here.

One data set in a line: Translocation of ^125I-labeled peptide from mouse intestine loop into blood and organs (Example 1). The format is in vivo, BALB/c mice. As to conditions: similar experiments; injected into a mouse intestinal loop; fraction of the full conjugate IBW-002. The source says: The tested peptide, representing a penetrating peptide and a radio-labeled probe in a contiguous construct of SEQ ID NO 3 and SEQ ID NO 17, hereby named IBW 002 (Novetide, lot 40139-45, sequence: Ac-NYYDITLALAGICQSARLVQQLAGGGKGGK-NH2 (SEQ ID NO:22), was ^125I-labeled using the Bolton Hunter Reagent (Biochem. J. 133:529-39 (1973)). The labeled peptide was loaded on a Sephadex G10 column, washed with phosphate buffer and eluted with 3M Tiocyanate in DDW+50% n-butanol. The peak, containing 6 fractions, was kept and used for in vivo experiments.
Four male BALB/c mice, 9-10 weeks old, were deprived of food, 18 hours prior to the experiment.
The mice were anesthetized by i.p. injection of 0.05 ml of a mixture of 0.15 ml xylazine+0.85 ml of ketamin. A 2 cm long incision was made along the center of the abdomen, through the skin and abdominal wall. An intestine loop was gently pulled out through the incision and placed on wet gauze beside the animal. The loop remained intact through the entire procedure and was kept wet during the whole time. The tested compound was injected into the loop, 0.2 ml/ mouse, containing around 200,000 cpm, using a 26G needle. Fifteen minutes post injection the tip of the tail was cut and a 50 μl blood sample was drawn into a glass capillary. This was repeated 30 and 60 minutes post injection. The animals were subsequently sacrificed. The following organs were removed: epididymal fat, kidneys, liver, lungs and brain. Radioactivity in each organ and in blood samples was counted. A 5 μl sample of the injected solution was counted to determine the total injected cpm per mouse.
The total radioactive labeling injected per mouse was 224,160 cpm. Total cpm in the blood was calculated based on the 50 μl blood sample drawn out at different time points post injection, in the assumption that total blood volume of each mouse is 2 ml.
In the case of “GGKGGK (also: 125I label, site not given here) [SEQ ID NO:17, reference compound]”, the “average amount recovered from the blood and various organs, relative to that obtained with IBW-002” value is listed as “about ⅕”.

The next data set in a line: Relative potency of penetrating peptides as tested in mice (Example 3). The format is in vivo. As to conditions: IBW-002 = 100. The source says:
Relative Potency of Penetrating Peptides as Tested in Mice.
As to “AcMNYYDITLALAGICQSARLVQQLAGGGKGGKNH2 (Ac-MNYYDITLALAGICQSARLVQQLAGGGKGGK-NH2) [IBW-002V1]”, the “Relative potency (%)” value stood at 73%.
Still for that read-out and setting: the same measure for “AcMRNLTRTSLLLAGLCTAAQMVFVGGGKGGKNh2 (Ac-MRNLTRTSLLLAGLCTAAQMVFVGGGKGGK-NH2) [IBW-005]”: 51%; for “AcMYDITLALAGICQSARIVQQLAGGKGGKNH2 [IBW-002V3]”: 77%.
Still for that read-out and setting: the same measure for “AcMYYDITLALAGICQSARLVQQLAGGGKGGKNH2 (Ac-MYYDITLALAGICQSARLVQQLAGGGKGGK-NH2) [IBW-002V2]”: 80%; for “AcNLPPIVLAVIGICAAVFLLQQYVGGGKGGKNH2 (Ac-NLPPIVLAVIGICAAVFLLQQYVGGGKGGK-NH2) [IBW-003]”: 37%.
“AcNYFIVNLALADLCMAAFNAAFNFGGGKGGKNH2 (Ac-NYFIVNLALADLCMAAFNAAFNFGGGKGGK-NH2) [IBW-004]”: the “Relative potency (%)” value was found to be 63%.
In the case of “AcNYFLVNLAFAEASMAAFNTVVNFGGKGGKNH2 (Ac-NYFLVNLAFAEASMAAFNTVVNFGGKGGK-NH2) [IBW-007]”, the “Relative potency (%)” value turned out to be 66%.
Still for that read-out and setting: then “AcNYHDIVLALAGVCQSARLVHQLAGGKGGKNH2 [IBW-006]”, with 77%.
